Data reported in patent US7867989B2, “α-glucosidase inhibitors from lichens” (priority 2007, dated 2011).

Biological target: α-Glucosidase (EC 3.2.1.20)
Details: read-out: IC50 values ± SEM against α-glucosidase enzyme; pH 6.9, 37° C., 0.5 μM p-nitrophenyl α-D-glucopyranoside substrate, 250 units/mL enzyme, 50 mM sodium phosphate buffer with 100 mM NaCl
Excerpt: The increments in absorption at 400 nm due to the hydrolysis of PNP-G by α-glucosidase were monitored continuously with a molecular devices spectrophotometer.

## CC(C)(O)[C@H]1CC[C@]2(C)[C@H]3CC[C@@H]4[C@@]5(C)CCCC(C)(C)[C@@H]5[C@@H](O)C[C@@]4(C)[C@]3(C)CC[C@@H]12 [Zeorin, 6,22-Hopanediol]
  IC50: 100 ± 0.3 µM
